Measurements published in patent US11787782B2, “Combinations of a 4-pyrimidinesulfamide derivative with active ingredients for the treatment of endothelin related diseases” (IDORSIA PHARMACEUTICALS LTD, priority 2017, dated 2023).
One block for each compound: values may come before it.

Experiments:
[1] = in comparison to corresponding alkylated derivatives; cited from earlier work
[2] = tested on: conscious, male hypertensive Dahl salt-sensitive rats; assay: Acute effects on MAP and HR by telemetry in Dahl salt-sensitive rats; assay type: in vivo, rat; conditions: Dahl-S rats
Experimental: The acute effects of ACT-132577 on blood pressure, in particular on mean arterial blood pressure (hereafter “MAP”), and heart rate (hereafter “HR”) were evaluated by means of telemetry in conscious, male hypertensive Dahl salt-sensitive rats (hereafter “Dahl-S rats”—see details about this model in Rapp, Hypertension (1982), 4, 753-763). Elevated blood pressure is induced in Dahl-S rats by providing 1% sodium chloride in drinking water. Groups of 6-7 Dahl-S rats were used for the vehicle (7.5% gelatin aqeuous solution) and each dose of ACT-132577 tested (0.3, 1, 3, 10, 30, 100, and 300 mg/kg). Effects of ACT-132577 on HR and MAP were calculated for individual animals relative to the 24 h period before administering. The results obtained regarding MAP (maximal MAP decrease observed over 6 consecutive hours) are summarised in FIG. 9 (data are presented as mean±standard error of the mean). In summary, a dose of 10 mg/kg ACT-132577 decreased MAP by 19±4 mm Hg in Dahl-S rats. In contrast to MAP, HR was not affected.

[3] = tested on: conscious, male hypertensive deoxycorticosterone acetate salt rats; assay: Acute effects on top of Exforge HCT in DOCA-salt rats (telemetry); assay type: in vivo, rat; conditions: for Blood pressure when added on top of Exforge HCT: aprocitentan 10 mg/kg or spironolactone 300 mg/kg oral, Exforge HCT 3.2/0.2/0.5 mg/kg
From the text: Res. (1975), 36, 300-309). In the DOCA-salt rats, hypertension is induced by the combination of unilateral nephrectomy, implantation of pellets of the mineralocorticoid analog DOCA, and provision of 1% sodium chloride in drinking water. 7-9 DOCA-salt rats per treatment group were used for this test. The results obtained regarding MAP are summarised in FIGS. 21 and 22 wherein each data point is presented as a 6-hour mean.

male Wistar rats = assay: Effect on fluid retention (haematocrit) in Wistar rats; assay type: in vivo, rat; conditions: single oral dose 1-30 mg/kg, 24 hours after administration
Experimental: A decrease in haematocrit (Hct) or haemoglobin occurs secondary to an increase in plasma volume and can be used as a marker of fluid retention. A single oral dose of aprocitentan (1-30 mg/kg) or vehicle (gelatin) was administered by gavage to male Wistar rats. Twenty-four hours after administration, sublingual blood was sampled under isoflurane-induced anesthesia. Haematocrit was measured using a hematology analyser.

[4] = tested on: conscious, male hypertensive deoxycorticosterone acetate salt rats; assay: Acute effects on MAP and HR by telemetry in DOCA-salt rats; assay type: in vivo, rat
Experimental: The acute effects of ACT-132577 on blood pressure, in particular on mean arterial blood pressure (hereafter “MAP”), and heart rate (hereafter “HR”) were evaluated by means of telemetry in conscious, male hypertensive deoxycorticosterone acetate salt rats (hereafter “DOCA-salt rats”—see details about this model in Gavras et al., Circ. Res. (1975), 36, 300-309). In the DOCA-salt rats, hypertension is induced by the combination of unilateral nephrectomy, implantation of pellets of the mineralocorticoid analog DOCA, and provision of 1% sodium chloride in drinking water. Groups of 6-11 DOCA-salt rats were used for the vehicle (7.5% gelatin aquous solution) and each dose of ACT-132577 tested (0.3, 1, 3, 10, 30, 100, and 300 mg/kg). Effects of ACT-132577 on HR and MAP were calculated for individual animals relative to the 24 h period before administering. The results obtained regarding MAP (maximal MAP decrease observed over 6 consecutive hours) are summarised in FIG. 10 (data are presented as mean±standard error of the mean). In summary, a dose of 10 mg/kg ACT-132577 decreased MAP by 29±6 mm Hg in DOCA-salt rats. In contrast to MAP, HR was not affected.

[5] = tested on: conscious, male spontaneously hypertensive rats; assay: Acute effects on top of Exforge HCT in SHRs (telemetry); assay type: in vivo, rat; conditions: for Blood pressure when added on top of Exforge HCT: aprocitentan 100 mg/kg or spironolactone 300 mg/kg oral, Exforge HCT 1.6/0.1/0.25 mg/kg
Experimental: The acute effects of Exforge HCT® (i.e. a fixed dose combination of valsartan/amlodipine/hydrochlorothiazide; dosage adapted for 1.6 mg/kg/0.1 mg/kg/0.25 mg/kg for valsartan/amlodipine/hydrochlorothiazide, respectively) on blood pressure, in particular on mean arterial blood pressure (hereafter “MAP”), and heart rate (hereafter “HR”) in combination with ACT-132577 or spironolactone were also evaluated by means of telemetry in conscious, male spontaneously hypertensive rats (hereafter “SHRs”-see details about this model in Atanur et al., Genome Res. (2010), 20, 791-803).
9 SHRs per treatment group were used for this test. To match the maximal effect on blood pressure of co-administered drug in this model, aprocitentan 100 mg/kg was administrated orally on the 3rd day following 3-day oral administration of Exforge HCT® mg/kg and spironolactone 300 mg/kg was co-administered orally with Exforge HCT® on the 1st day followed by 2 days of Exforge HCT® administration. The results obtained regarding MAP are summarised in FIGS. 19 and 20 wherein each data point is presented as a 6-hour mean.

[6] = tested on: conscious, male spontaneously hypertensive rats; assay: Acute effects on MAP and HR by telemetry in spontaneously hypertensive rats; assay type: in vivo, rat; conditions: SHRs
Experimental: The acute effects of ACT-132577 on blood pressure, in particular on mean arterial blood pressure (hereafter “MAP”), and heart rate (hereafter “HR”) were evaluated by means of telemetry in conscious, male spontaneously hypertensive rats (hereafter “SHRs”—see details about this model in Atanur et al., Genome Res. (2010), 20, 791-803). Groups of 4-6 SHRs were used for the vehicle (7.5% gelatin aquous solution) and each dose of ACT-132577 tested (1, 3, 10, 30, 100, and 300 mg/kg). Effects of ACT-132577 on HR and MAP were calculated for individual animals relative to the 24 h period before administering. The results obtained regarding MAP (maximal MAP decrease observed over 6 consecutive hours) are summarised in FIG. 11 (data are presented as mean±standard error of the mean). In summary, a dose of 100 mg/kg ACT-132577 decreased MAP by 18±4 mm Hg in SHRs. In contrast to MAP, HR was not affected.

[7] = tested on: conscious, male hypertensive deoxycorticosterone acetate salt rats; assay: Chronic effects of repeated oral administration in DOCA-salt rats; assay type: in vivo, rat
Experimental: The chronic effects of repeated administrations of doses of 1, 10 and 100 mg/kg/day of ACT-132577, in particular mean arterial blood pressure (hereafter “MAP”), and heart rate (hereafter “HR”), were evaluated in conscious, male hypertensive deoxycorticosterone acetate salt rats (hereafter “DOCA-salt rats”-see details about this model in Gavras et al., Circ. Res. (1975), 36, 300-309). In the DOCA-salt rats, hypertension is induced by the combination of unilateral nephrectomy, implantation of pellets of the mineralocorticoid analog DOCA, and provision of 1% sodium chloride in drinking water. The results of the DOCA-salt rats treated with ACT-132577 were compared to those obtained for Wistar rats or for DOCA-salt rats that received only the vehicle (4% gelatin aquous solution).

[8] = Storage at room temperature (crystal form stability, XRPD and HPLC control); assay type: physicochemical; conditions: 20-25° C.
Experimental: All XRPD patterns for the solid forms described herein have been obtained as described hereafter. X-ray powder diffraction patterns were collected on a Bruker D8 Advance X-ray diffractometer equipped with a Lynxeye detector operated with CuKα-radiation in reflection mode (coupled two Theta/Theta). Typically, the X-ray tube was run at of 40 kV/40 mA. A step size of 0.02° (2θ) and a step time of 76.8 sec over a scanning range of 3-50° in 2θ were applied. The divergence slit was set to fixed 0.3. Powders were slightly pressed into a silicon single crystal sample holder with depth of 0.5 mm and samples were rotated in their own plane during the measurement. Diffraction data are reported using combined Cu Kα1 and Kα2 radiation, without Kα2 stripping. The accuracy of the 2θ values as provided herein is in the range of +/−0.1-0.2° as it is generally the case for conventionally recorded X-ray powder diffraction patterns. A sample of Form A crystals of the COMPOUND (as obtained according to Example 1 above) has been stored at a temperature of 20-25° C. at 92% relative humidity for 2 months. […] The same result was obtained after storage for 8 weeks under the above conditions. […] A sample of Form B crystals of a dichloromethane solvate of the COMPOUND (as obtained according to Example 2 above) has been stored in a closed vial ([…] of Form B crystals being placed in a closed 4 mL vial) at a temperature of 20-25° C. for about 3 weeks. […] A sample of Form K crystals of a dimethylsulfoxide solvate of the COMPOUND (as obtained according to Example 7 above) has been stored in a closed vial ([…] of Form K crystals being placed in a closed 4 mL vial) at a temperature of 20-25° C. for about 3 weeks.

[9] = Hygroscopicity by gravimetric vapor sorption (GVS); assay type: physicochemical
From the text: Mass increase of a sample as obtained according to Example 1 in the first cycle from 40% r.h. to 80% r.h. corresponds to 0.4%. At 95% r.h. 2.2% moisture were taken up in a reversible way without hysteresis upon drying.

patients with rHT = conditions: 14 week phase 3 trial, cited from earlier work
[10] = 10 mg/kg, mean±standard error of the mean
[11] = DOCA-salt rats, 1, 10 and 100 mg/kg/day oral for 4 weeks
[12] = DOCA-salt rats, chronic oral administration

Haematocrit (Hct), marker of fluid retention (male Wistar rats): did not impact on haematocrit
SMILES: NS(=O)(=O)Nc1ncnc(OCCOc2ncc(Br)cn2)c1-c1ccc(Br)cc1 [ACT-132577, {5-(4-bromo-phenyl)-6-[2-(5-bromo-pyrimidin-2-yloxy)-ethoxy]-pyrimidin-4-yl}-sulfamide]
Clearance in vivo [1]: much shorter clearance
Half-life in vivo [1]: much longer half-life
MAP decrease (maximal decrease over 6 consecutive hours) [2, 10]: 19±4 mm Hg
Heart rate (HR) ([2]; doses 0.3-300 mg/kg): not affected
Blood pressure when added on top of Exforge HCT [3]: further reduced blood pressure
Blood pressure reduction compared with spironolactone, on top of Exforge HCT ([3]; aprocitentan 10 mg/kg vs spironolactone 300 mg/kg): greater blood pressure reduction than spironolactone
MAP decrease (maximal decrease over 6 consecutive hours) [4, 10]: 29±6 mm Hg
Heart rate (HR) ([4]; doses 0.3-300 mg/kg): not affected
Blood pressure when added on top of Exforge HCT [5]: further reduced blood pressure
Blood pressure reduction compared with spironolactone, on top of Exforge HCT ([5]; aprocitentan 100 mg/kg vs spironolactone 300 mg/kg): greater blood pressure reduction than spironolactone
MAP decrease (maximal decrease over 6 consecutive hours) ([6]; 100 mg/kg, mean±standard error of the mean): 18±4 mm Hg
Heart rate (HR) ([6]; doses 1-300 mg/kg): not affected
DOCA-salt-induced increase in MAP [7, 11]: dose-dependently attenuated the DOCA-salt-induced increase in MAP
Heart rate (HR) [7, 11]: without changing HR
Left ventricular hypertrophy [7, 12]: tended to decrease left ventricular hypertrophy
Plasma concentrations of N-terminal pro-brain natriuretic peptide (NTproBNP) [7, 12]: dose-dependent decrease
Renal blood flow [7, 12]: dose-dependently increased renal blood flow
Renal vascular resistance [7, 12]: decreased renal vascular resistance

Crystal form by X-ray powder diffraction after storage in a closed vial ([8]; closed 4 mL vial, about 3 weeks): transformed into Form A crystals
SMILES: NS(=O)(=O)Nc1ncnc(OCCOc2ncc(Br)cn2)c1-c1ccc(Br)cc1 [Form B, {5-(4-bromo-phenyl)-6-[2-(5-bromo-pyrimidin-2-yloxy)-ethoxy]-pyrimidin-4-yl}-sulfamide]

SMILES: CC(=O)S[C@@H]1CC2=CC(=O)CC[C@]2(C)[C@H]2CC[C@@]3(C)[C@@H](CC[C@@]34CCC(=O)O4)[C@H]12 [spironolactone, reference compound]
Blood pressure when added on top of Exforge HCT [3]: further reduced blood pressure
Blood pressure when added on top of Exforge HCT [5]: further reduced blood pressure

Moisture taken up ([9]; at 95% r.h., reversible, without hysteresis upon drying): 2.2%
Mass increase ([9]; first cycle from 40% r.h. to 80% r.h.): 0.4%
Hygroscopicity (GVS) ([9]; sample obtained according to Example 1): slightly hygroscopic
Crystal form by X-ray powder diffraction after storage ([8]; 92% relative humidity, 2 months): still consisting only in Form A crystals
Crystal form by X-ray powder diffraction after storage ([8]; 92% relative humidity, 8 weeks): same result
HPLC control after storage (change in peak area %, degradation) ([8]; 92% relative humidity, 8 weeks): no significant degradation
SMILES: NS(=O)(=O)Nc1ncnc(OCCOc2ncc(Br)cn2)c1-c1ccc(Br)cc1 [Form A, {5-(4-bromo-phenyl)-6-[2-(5-bromo-pyrimidin-2-yloxy)-ethoxy]-pyrimidin-4-yl}-sulfamide]

SMILES: COc1cc(OC)nc(O[C@H](C(=O)O)C(OC)(c2ccccc2)c2ccccc2)n1 [darusentan]
Fluid retention/edema (most frequent adverse event) (patients with rHT; 12% in each of the other groups): 28%
Primary endpoint systolic blood pressure (patients with rHT): failed to show significant treatment effect
Reduction of ambulatory blood pressure (patients with rHT): demonstrated efficacy
